Data as given in ChEMBL document CHEMBL4477271, “Synthesis and antitumor activity evaluation of 4,6-disubstituted quinazoline derivatives as novel PI3K inhibitors” (Bioorg Med Chem Lett, 2016).

Legend:
[1] = tested on: HCT-116; experiment: Antiproliferative activity against human HCT116 cells harboring PI3CA H1047R mutant after 72 hrs by MTT assay; assay type: functional, cell-based; settings: HCT-116, 72 h
[2] = tested on: MCF7; experiment: Antiproliferative activity against human MCF7 cells harboring PI3CA E545K mutant after 72 hrs by MTT assay; assay type: functional, cell-based; settings: MCF7, 72 h
[3] = molecular target: Phosphatidylinositol 4,5-bisphosphate 3-kinase catalytic subunit alpha isoform (Homo sapiens, UniProt P42336); experiment: Inhibition of PI3Kalpha (unknown origin) assessed as reduction in ATP depletion using lipid substrate after 40 mins by Kinase-Glo luminescent assay
[4] = tested on: CCRF S-180; experiment: Antitumor activity against mouse S180 cells implanted in mouse assessed as tumor growth inhibition at 15 mg/kg, po qd for 8 days relative to control; assay type: functional; settings: CCRF S-180, po, 192 h, read-out: TGI
[5] = Toxicity in mouse implanted with mouse S180 cells assessed as body weight loss at 5 to 50 mg/kg, po qd for 8 days; assay type: organism-based; settings: in vivo, 192 h
[6] = tested on: CCRF S-180; experiment: Antitumor activity against mouse S180 cells implanted in mouse assessed as tumor growth inhibition at 5 mg/kg, po qd for 8 days relative to control; assay type: functional; settings: CCRF S-180, po, 192 h, read-out: TGI
[7] = molecular target: Phosphatidylinositol 4,5-bisphosphate 3-kinase catalytic subunit beta isoform (Homo sapiens, UniProt P42338); experiment: Inhibition of PI3Kbeta (unknown origin) assessed as reduction in ATP depletion using lipid substrate after 40 mins by Kinase-Glo luminescent assay
[8] = molecular target: Phosphatidylinositol 4,5-bisphosphate 3-kinase catalytic subunit gamma isoform (Homo sapiens, UniProt P48736); experiment: Inhibition of PI3Kgamma (unknown origin) assessed as reduction in ATP depletion using lipid substrate after 40 mins by Kinase-Glo luminescent assay
[9] = tested on: CCRF S-180; experiment: Antitumor activity against mouse S180 cells implanted in mouse assessed as tumor growth inhibition at 50 mg/kg, po qd for 8 days relative to control; assay type: functional; settings: CCRF S-180, po, 192 h, read-out: TGI
[10] = molecular target: T1, Phosphatidylinositol 4,5-bisphosphate 3-kinase catalytic subunit delta isoform (Homo sapiens, UniProt O00329); experiment: Inhibition of PI3Kdelta (unknown origin) assessed as reduction in ATP depletion using lipid substrate after 40 mins by Kinase-Glo luminescent assay
T1 sequence (O00329 whole entry): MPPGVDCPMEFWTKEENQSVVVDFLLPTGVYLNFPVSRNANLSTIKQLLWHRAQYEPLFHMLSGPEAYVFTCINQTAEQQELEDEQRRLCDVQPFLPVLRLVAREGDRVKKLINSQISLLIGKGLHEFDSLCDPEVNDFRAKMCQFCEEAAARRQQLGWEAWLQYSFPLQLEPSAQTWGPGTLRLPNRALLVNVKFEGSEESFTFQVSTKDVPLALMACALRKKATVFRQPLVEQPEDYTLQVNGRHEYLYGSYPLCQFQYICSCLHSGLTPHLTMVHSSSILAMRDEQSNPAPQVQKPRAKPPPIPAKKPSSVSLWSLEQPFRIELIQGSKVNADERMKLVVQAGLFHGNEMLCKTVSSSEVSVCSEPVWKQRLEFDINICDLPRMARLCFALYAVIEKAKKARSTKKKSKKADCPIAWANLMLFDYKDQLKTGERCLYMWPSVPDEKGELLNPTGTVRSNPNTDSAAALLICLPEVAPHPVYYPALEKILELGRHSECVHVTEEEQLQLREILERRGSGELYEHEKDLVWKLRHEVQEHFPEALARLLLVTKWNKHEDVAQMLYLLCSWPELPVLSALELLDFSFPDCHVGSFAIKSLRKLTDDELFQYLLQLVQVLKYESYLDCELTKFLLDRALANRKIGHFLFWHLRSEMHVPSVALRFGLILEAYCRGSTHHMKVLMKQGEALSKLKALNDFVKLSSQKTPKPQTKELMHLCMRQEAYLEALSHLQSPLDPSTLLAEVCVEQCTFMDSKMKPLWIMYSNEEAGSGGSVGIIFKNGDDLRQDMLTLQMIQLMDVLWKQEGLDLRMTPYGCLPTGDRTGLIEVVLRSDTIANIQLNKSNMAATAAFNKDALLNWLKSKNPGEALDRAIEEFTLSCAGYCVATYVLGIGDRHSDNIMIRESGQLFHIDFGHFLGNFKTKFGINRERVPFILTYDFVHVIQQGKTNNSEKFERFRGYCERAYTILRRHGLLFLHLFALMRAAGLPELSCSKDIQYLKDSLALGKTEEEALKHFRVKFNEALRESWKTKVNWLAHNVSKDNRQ

Sequence of Phosphatidylinositol 4,5-bisphosphate 3-kinase catalytic subunit alpha isoform (P42336 whole entry, canonical isoform): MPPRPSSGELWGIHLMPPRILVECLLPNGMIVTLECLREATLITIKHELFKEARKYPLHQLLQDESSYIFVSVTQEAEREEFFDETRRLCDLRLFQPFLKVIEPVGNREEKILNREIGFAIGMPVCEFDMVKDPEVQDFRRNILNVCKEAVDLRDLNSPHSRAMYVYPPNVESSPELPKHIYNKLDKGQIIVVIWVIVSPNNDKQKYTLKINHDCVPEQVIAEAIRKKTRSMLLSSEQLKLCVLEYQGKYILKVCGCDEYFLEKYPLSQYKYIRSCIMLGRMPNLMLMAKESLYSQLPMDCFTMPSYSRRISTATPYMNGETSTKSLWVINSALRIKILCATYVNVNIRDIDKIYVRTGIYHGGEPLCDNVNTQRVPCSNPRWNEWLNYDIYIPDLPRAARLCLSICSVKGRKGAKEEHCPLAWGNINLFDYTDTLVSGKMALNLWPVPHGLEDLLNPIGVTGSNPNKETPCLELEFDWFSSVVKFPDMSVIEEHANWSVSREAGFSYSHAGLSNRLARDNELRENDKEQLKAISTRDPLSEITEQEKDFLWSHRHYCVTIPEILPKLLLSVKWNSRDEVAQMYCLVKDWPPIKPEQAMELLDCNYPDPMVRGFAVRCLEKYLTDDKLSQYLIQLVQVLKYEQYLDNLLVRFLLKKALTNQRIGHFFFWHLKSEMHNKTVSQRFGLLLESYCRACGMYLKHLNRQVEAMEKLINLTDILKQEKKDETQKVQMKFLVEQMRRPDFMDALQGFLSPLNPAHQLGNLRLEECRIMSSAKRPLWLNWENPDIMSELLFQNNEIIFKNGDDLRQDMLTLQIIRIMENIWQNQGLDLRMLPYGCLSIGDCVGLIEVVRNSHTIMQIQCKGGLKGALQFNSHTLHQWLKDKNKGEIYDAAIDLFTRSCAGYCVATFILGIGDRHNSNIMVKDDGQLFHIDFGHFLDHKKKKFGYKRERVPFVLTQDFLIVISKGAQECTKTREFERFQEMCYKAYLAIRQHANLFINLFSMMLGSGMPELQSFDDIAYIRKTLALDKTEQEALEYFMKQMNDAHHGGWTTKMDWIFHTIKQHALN
Sequence of Phosphatidylinositol 4,5-bisphosphate 3-kinase catalytic subunit beta isoform (P42338 whole entry, canonical isoform): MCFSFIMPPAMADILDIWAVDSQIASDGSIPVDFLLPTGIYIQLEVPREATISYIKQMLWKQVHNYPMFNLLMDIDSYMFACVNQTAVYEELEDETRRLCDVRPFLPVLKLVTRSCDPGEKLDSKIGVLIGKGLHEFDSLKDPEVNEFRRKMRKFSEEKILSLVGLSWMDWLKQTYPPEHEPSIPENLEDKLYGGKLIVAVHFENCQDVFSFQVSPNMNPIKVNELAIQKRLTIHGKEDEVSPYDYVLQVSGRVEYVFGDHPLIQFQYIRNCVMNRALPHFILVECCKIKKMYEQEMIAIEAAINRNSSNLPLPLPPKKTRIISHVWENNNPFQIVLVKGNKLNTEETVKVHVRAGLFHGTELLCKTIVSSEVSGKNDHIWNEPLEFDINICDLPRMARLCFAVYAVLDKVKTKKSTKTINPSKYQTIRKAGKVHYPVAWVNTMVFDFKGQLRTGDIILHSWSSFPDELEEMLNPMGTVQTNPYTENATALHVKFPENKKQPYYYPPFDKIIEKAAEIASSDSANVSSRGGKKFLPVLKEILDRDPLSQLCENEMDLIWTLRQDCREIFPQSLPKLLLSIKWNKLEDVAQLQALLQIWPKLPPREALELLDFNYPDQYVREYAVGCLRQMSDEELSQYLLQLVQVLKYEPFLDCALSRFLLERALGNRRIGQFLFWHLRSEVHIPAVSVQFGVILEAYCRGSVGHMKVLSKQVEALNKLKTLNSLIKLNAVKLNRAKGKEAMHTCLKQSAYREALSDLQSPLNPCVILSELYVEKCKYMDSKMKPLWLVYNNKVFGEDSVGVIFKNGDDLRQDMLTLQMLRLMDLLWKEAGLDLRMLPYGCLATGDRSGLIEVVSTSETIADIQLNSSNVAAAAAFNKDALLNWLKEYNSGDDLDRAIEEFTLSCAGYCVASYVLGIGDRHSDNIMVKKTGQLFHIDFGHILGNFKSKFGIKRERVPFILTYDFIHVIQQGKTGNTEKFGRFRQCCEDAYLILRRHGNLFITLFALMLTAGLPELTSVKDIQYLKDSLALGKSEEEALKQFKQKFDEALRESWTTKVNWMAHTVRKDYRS
Sequence of Phosphatidylinositol 4,5-bisphosphate 3-kinase catalytic subunit gamma isoform (P48736 whole entry, canonical isoform): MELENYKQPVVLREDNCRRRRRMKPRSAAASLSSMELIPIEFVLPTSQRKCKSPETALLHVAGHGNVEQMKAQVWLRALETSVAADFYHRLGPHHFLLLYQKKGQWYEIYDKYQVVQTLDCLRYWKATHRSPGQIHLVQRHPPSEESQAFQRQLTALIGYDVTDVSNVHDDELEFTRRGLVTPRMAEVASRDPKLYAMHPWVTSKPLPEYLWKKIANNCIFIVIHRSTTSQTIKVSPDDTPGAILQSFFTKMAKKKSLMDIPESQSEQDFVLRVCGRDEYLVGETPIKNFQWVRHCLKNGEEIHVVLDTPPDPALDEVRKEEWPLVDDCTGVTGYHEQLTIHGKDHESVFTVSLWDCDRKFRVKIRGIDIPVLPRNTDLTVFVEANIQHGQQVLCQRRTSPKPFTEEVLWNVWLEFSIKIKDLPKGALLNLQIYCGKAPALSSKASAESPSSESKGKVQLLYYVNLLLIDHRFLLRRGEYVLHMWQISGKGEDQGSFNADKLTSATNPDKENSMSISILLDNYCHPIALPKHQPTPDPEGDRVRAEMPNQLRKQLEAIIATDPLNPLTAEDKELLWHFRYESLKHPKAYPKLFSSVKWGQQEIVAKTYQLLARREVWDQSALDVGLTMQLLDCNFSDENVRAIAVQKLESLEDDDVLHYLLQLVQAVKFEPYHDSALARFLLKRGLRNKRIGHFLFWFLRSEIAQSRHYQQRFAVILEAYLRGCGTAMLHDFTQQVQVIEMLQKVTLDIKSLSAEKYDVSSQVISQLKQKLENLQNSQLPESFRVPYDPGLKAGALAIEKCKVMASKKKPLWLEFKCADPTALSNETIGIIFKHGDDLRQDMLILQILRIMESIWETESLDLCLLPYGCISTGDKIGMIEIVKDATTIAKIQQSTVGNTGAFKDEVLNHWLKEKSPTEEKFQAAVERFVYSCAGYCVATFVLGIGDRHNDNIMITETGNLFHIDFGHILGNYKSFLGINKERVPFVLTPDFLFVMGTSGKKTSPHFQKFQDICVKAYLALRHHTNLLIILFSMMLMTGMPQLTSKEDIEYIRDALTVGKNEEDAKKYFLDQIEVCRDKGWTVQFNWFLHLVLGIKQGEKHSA

Row | IC50 [1] [µM] | IC50 [2] [µM] | Structure (SMILES) | other results
1 | 29.4 | 39.1 | COc1ccc(-c2ccc3ncnc(NCCN4CCCCC4)c3c2)cc1C(N)=O | 
2 | 15.8 | 2.97 | COc1ccc(-c2ccc3ncnc(NCCN(C)C)c3c2)cn1 | 
3 | 0.56 | 3.23 | COc1ncc(-c2ccc3ncnc(NCCN(C)C)c3c2)cc1C#N | IC50 [3]: 3.01 µM
4 | 9.38 | 7.26 | COc1ncc(-c2ccc3ncnc(OCCN(C)C)c3c2)cc1[N+](=O)[O-] | 
5 | 7.33 | 16.3 | CCN(CC)CCNc1ncnc2ccc(-c3cnc(OC)c([N+](=O)[O-])c3)cc12 | 
6 | 22.2 | 2.42 | COc1ccc(-c2ccc3ncnc(NCCN4CCCCC4)c3c2)cn1 | 
7 | 2.68 | 2.74 | COc1ncc(-c2ccc3ncnc(NCCN4CCCCC4)c3c2)cc1C#N | 
8 | 5.16 | 6.68 | COc1ncc(-c2ccc3ncnc(OCCN(C)C)c3c2)cc1C#N | 
9 | 0.51 | 2.1 | COc1ncc(-c2ccc3ncnc(NCCN4CCOCC4)c3c2)cc1C#N | inhibition in vivo at 15 mg/kg [4]: 49%; IC50 [3]: 0.465 µM; Activity [5]: Non-Toxic; inhibition in vivo at 5 mg/kg [6]: 33%; IC50 [7]: 0.3 µM; IC50 [8]: 0.934 µM; inhibition in vivo at 50 mg/kg [9]: 68.4%; IC50 [10]: 0.037 µM
10 | 1.8 | 2.87 | COc1ncc(-c2ccc3ncnc(NCCN4CCOCC4)c3c2)cc1[N+](=O)[O-] | 
11 | 2.35 | 6.22 | COc1ncc(-c2ccc3ncnc(NCCN4CCCC4)c3c2)cc1C#N | 
12 | 2.05 | 3.86 | CCN(CC)CCNc1ncnc2ccc(-c3cnc(OC)c(C#N)c3)cc12 | 
13 | 38.6 | 34.3 | COc1ccc(-c2ccc3ncnc(NCCN4CCOCC4)c3c2)cn1 | 
14 | 0.65 | 8.61 | COc1ncc(-c2ccc3ncnc(NCCN4CCCCC4)c3c2)cc1[N+](=O)[O-] | IC50 [3]: 3.17 µM
15 | 24.4 | 29.3 | COc1ccc(-c2ccc3ncnc(NCCN4CCOCC4)c3c2)cc1C(N)=O | 
16 | 9.56 | 8.74 | CCN(CC)CCNc1ncnc2ccc(-c3ccc(OC)nc3)cc12 | 
17 | 3.91 | 10.1 | COc1ccc(-c2ccc3ncnc(NCCN4CCCC4)c3c2)cn1 | 
